Numbers after ± are expanded uncertainties.

Data set [1] can be described thus: refractive index (Na D-line) (dimensionless). To be noted: 298.15 K; 101.3 kPa; Liquid; Standard Abbe refractometry.
For data set [2] the following is noted: 298.15 K; 101.3 kPa; Liquid; Vibrating tube method.

The term refractive index denotes a measure of how strongly the sample bends light. For orientation: mass density means the mass of a sample divided by its volume. With `CCN(CC)CCO` [(diethylamino)ethanol], in data set [1], the refractive index is listed as 1.43833 ± 0.001. In data set [2], the mass density is on record as 880 ± 5 kg/m3.
In the same order, the values of `CNCCCN` [N-methyl-1,3-diaminopropane] are 1.44564 ± 0.0012 and 848 ± 5 kg/m3.
In the same order, the values of `CN(CCO)CCO` [N-methyldiethanolamine] are 1.4674 ± 0.0011 and 1037 ± 2 kg/m3.
As for `O` [water], the refractive index in data set [1] was 1.33249 ± 0.001.

The record behind these values is the NIST ThermoML archive (doi:10.1021/acs.jced.6b01038).
